Patent US9701628B2, “12-epi pleuromutilins” (NABRIVA THERAPEUTICS AG, priority 2014, dated 2017)
Converted amounts (≈) assume the structure as drawn. Where a name gives a salt, the structure may show the parent alone. Read-outs that look alike come from different tables or passages of the source.

Legend:
[1] = test system: Staphylococcus aureus ATCC 49951; assay: MIC by broth microdilution (CLSI) against Staphylococcus aureus ATCC 49951; assay type: cell-based
Description: (§1) The in vitro activity against aerobic bacteria was determined by Broth Microdilution Test according to the Clinical and Laboratory Standards Institute (CLSI, former NCCLS) Document M7-A9 Vol 32, No 2 “Methods for Dilution Antimicrobial Susceptibility Tests for Bacteria that Grow Aerobically; Approved Standard—Ninth Edition (2012)”; and the test against anaerobic bacteria was performed by Agar Dilution Test according to the Clinical and Laboratory Standards Institute (CLSI, former NCCLS), Document, M11-A8, Vol. 32, No. 5: “Methods for Antimicrobial Susceptibility Testing of Anaerobic Bacteria; Approved Standard—Eighth Edition (2012)”. Performance standards and interpretive criteria followed the CLSI Document, M100-S23: “Performance Standards for Antimicrobial Susceptibility Testing; Twenty-Third Informational Supplement” (2013). The in vivo activity was tested by the septicaemia mouse model against Staphylococcus aureus and Escherichia coli.
(§2) The antibacterial activity expressed as minimal inhibitory concentration (MIC) was determined according to the approved standard reference recommendations of CLSI (former NCCLS) as described in the description of the application.

[2] = test system: Escherichia coli ATCC25922; assay: MIC by broth microdilution (CLSI) against Escherichia coli ATCC 25922; assay type: cell-based
Description: as §1, §2

[3] = ATCC49951, Staphylococcus aureus ATCC 49951, in vitro, read-out: MIC
[4] = Escherichia coli ATCC25922, in vitro, read-out: MIC
[5] = Staphylococcus aureus ATCC 49951, in vitro
[6] = Escherichia coli ATCC25922, in vitro

SMILES | MIC [1, 3] | MIC [2, 4] | MIC [1, 5] | MIC [2, 6] | further results
C[C@@H]1CC[C@@]23CCC(=O)[C@H]2[C@]1(C)[C@H](OC(=O)CSC1CCCNCC1)C[C@](C)(CNCCCCCCN)[C@@H](O)[C@@H]3C (stereo partly drawn) [Example 130, 12-epi-12-desvinyl-14-O-[(Azepan-4-ylsulfanyl)-acetyl]-12-[(6-amino-hexylamino)-methyl] mutilin trihydrochloride] | ≤ 0.03 µg/mL | 0.5 µg/mL |  |  | 
CC1C(O)C(C)(CNCCCCCCNC(=N)N)CC(OC(=O)CSC2CCCNCC2)C2(C)C(C)CCC13CCC(=O)C32.Cl.Cl.Cl (stereo not drawn) [Example 131, 12-epi-12-desvinyl-14-O-[(Azepan-4-ylsulfanyl)-acetyl]-12-[(6-guanidino-hexylamino)-methyl] mutilin trihydrochloride] |  |  | 0.06 µg/mL | 0.125 µg/mL | 
C[C@@H]1CC[C@@]23CCC(=O)[C@H]2[C@]1(C)[C@H](OC(=O)CSC1CCCNCC1)C[C@](C)(CCNc1ccc(CN)cc1)[C@@H](O)[C@@H]3C (stereo partly drawn) [Example 143, 12-epi-12-desvinyl-14-O-[(Azepan-4-ylsulfanyl)-acetyl]-12-[(4-aminomethyl-phenylamino)-ethyl] mutilin trihydrochloride] | 0.125 µg/mL | 4 µg/mL |  |  | 
C[C@@H]1CC[C@@]23CCC(=O)[C@H]2[C@]1(C)[C@H](OC(=O)CSC1CCN(C(=O)CN)CC1)C[C@](C)(CCCCCCCCN)[C@@H](O)[C@@H]3C [Example 146, 12-epi-12-desvinyl-14-O-{[1-(2-Amino-acetyl)-piperidin-4-yl-sulfanyl]-acetyl}-2-(8-amino-octyl) mutilin dihydrochloride] | ≤ 0.03 µg/mL | 8 µg/mL |  |  | 
C[C@@H]1CC[C@@]23CCC(=O)C2[C@]1(C)[C@H](OC(=O)CSC1CCC(CNC(=O)CN)CC1)C[C@](C)(CCc1ccc(CNCCN)cc1)[C@@H](O)[C@@H]3C (stereo partly drawn) [Example 152, 12-epi-12-desvinyl-14-O-{{4-[(2-Amino-acetylamino)-methyl]-cyclohexylsulfanyl}-acetyl}-12-[2-{4-[(2-amino-ethylamino)-methyl]-phenyl}-ethyl) mutilin trihydrochloride] | 0.25 µg/mL | 4 µg/mL |  |  | 
CC1C(O)C(C)(C=Cc2ccc(CNCCN)c(F)c2)CC(OC(=O)CSC2CCCNCC2)C2(C)C(C)CCC13CCC(=O)C32.Cl.Cl.Cl (stereo not drawn) [Example 157, 12-epi-12-desvinyl-14-O-[(Azepan-4-ylsulfanyl)-acetyl]-12-((E)-2-{4-[(2-amino-ethylamino)-methyl]-3-fluoro-phenyl}-ethenyl) mutilin trihydrochlorid] |  |  | 0.25 µg/mL | 4 µg/mL | 
C=C[C@@]1(C)C[C@@H](OC(=O)CSc2nnc(N)[nH]2)[C@]2(C)[C@H](C)CC[C@]3(CCC(=O)[C@H]32)[C@@H](C)[C@@H]1O.Cl [Example C1, 12-epi-14-O-{[(5-Amino-4H-1,2,4-triazol-3-yl)-sulfanyl]-acetyl} mutilin hydrochloride, reference compound] |  |  | 0.5 µg/mL | 128 µg/mL | 
C=CC1(C)CC(OC(=O)CSc2ccc(CC(=O)NCC(C)N)cc2)C2(C)C(C)CCC3(CCC(=O)C32)C(C)C1O.Cl (stereo not shown) [Example C2, 14-O-{{4-[(2-Amino-propylcarbamoyl)-methyl]-phenylsulfanyl}-acetyl} mutilin hydrochloride, reference compound] |  |  | ≦0.03 μg/mL | 32 µg/mL | 
CC1C(O)C(C)(CNCCCN)CC(OC(=O)CSC2CCC(N)CC2O)C2(C)C(C)CCC13CCC(=O)C32.Cl.Cl.Cl [Example C3, 14-O-{[(1R,2R,4R)-4-Amino-2-hydroxy-cyclohexylsulfanyl]-acetyl}-12-desvinyl-12-[(3-amino-propylamino)-methyl] mutilin trihydrochlorid, reference compound] |  |  | 16 µg/mL | >32 µg/mL | 
C=C[C@]1(C)C[C@@H](OC(=O)CS[C@@H]2C[C@H]3CC[C@@H](C2)N3C)[C@]2(C)[C@H](C)CC[C@]3(CCC(=O)[C@H]32)[C@@H](C)[C@@H]1O [Retapamulin, retapamulin, reference compound] |  |  |  |  | MIC ([1]; Staphylococcus aureus, ATCC49951): ≤ 0.03 µg/mL; MIC ([2]; Escherichia coli, ATCC25922): 32 µg/mL (≈ 61.8 µM)
C=C[C@]1(C)C[C@@H](OC(=O)CSCCN(CC)CC)[C@]2(C)[C@H](C)CC[C@]3(CCC(=O)[C@H]32)[C@@H](C)[C@@H]1O [Tiamulin, tiamulin, reference compound] | 0.5 µg/mL (≈ 1.01 µM) | > 32 µg/mL |  |  | 
